Laboratory results reported in US5294611A, “Angiotensin II receptor blocking 2,3,6 substituted quinazolinones” (American Cyanamid Company, priority 1993, dated 1994).
Like-named read-outs stand apart in the source and are kept apart here.

System: Angiotensin II (AII) vasopressor response
Assay: AII Challenge: antagonism of angiotensin II vasopressor response in conscious spontaneously hypertensive rats
Format: in vivo, rat (male okamoto-Aoki SHR)
Conditions: for inhibition in vivo at 1 mg/kg / inhibition in vivo at 3 mg/kg / inhibition in vivo at 5 mg/kg: Rattus norvegicus; for inhibition in vivo at 1 mg/kg / inhibition in vivo at 3 mg/kg: iv; for inhibition in vivo at 1 mg/kg / inhibition in vivo at 3 mg/kg / inhibition in vivo at 5 mg/kg / Average Change: SHR n=2; for inhibition in vivo at 3 mg/kg / inhibition in vivo at 5 mg/kg: read-out: Inhibition; for inhibition in vivo at 5 mg/kg: po
How it was run: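 Conscious male SHR (16–20 weeks, ~330 g) cannulated under local procaine, blood pressure recorded via transducer. Angiotensin II (human) 0.05 and 0.1 ug/kg i.v. given before and after test compound dosed i.v., i.p. or orally; response measured as rise in systolic pressure (mmHg).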

## CCCCc1nc2ccc([C@H]3[C@@H]4CCC[C@@H]4ON3C)cc2c(=O)n1Cc1ccc(-c2ccccc2-c2nnn[nH]2)cc1 (relative stereo) [Example 50]
0.5 h, 1 mg/kg I.V., AII 0.05 mcg/kg IV, 30 min post dose
  inhibition in vivo at 1 mg/kg: 17%
0.5 h, 1 mg/kg I.V., AII 0.1 mcg/kg IV, 30 min post dose
  inhibition in vivo at 1 mg/kg: 39%
0.5 h, 3 mg/kg I.V., AII 0.05 mcg/kg IV, 30 min post dose
  inhibition in vivo at 3 mg/kg: 64%
0.5 h, 3 mg/kg I.V., AII 0.1 mcg/kg IV, 30 min post dose
  inhibition in vivo at 3 mg/kg: 66%
1 h, 1 mg/kg I.V., AII 0.05 mcg/kg IV, 60 min post dose
  inhibition in vivo at 1 mg/kg: 17%
1 h, 1 mg/kg I.V., AII 0.1 mcg/kg IV, 60 min post dose
  inhibition in vivo at 1 mg/kg: 27%
1 h, 3 mg/kg I.V., AII 0.05 mcg/kg IV, 60 min post dose
  inhibition in vivo at 3 mg/kg: 70%
1 h, 3 mg/kg I.V., AII 0.1 mcg/kg IV, 60 min post dose
  inhibition in vivo at 3 mg/kg: 65%
2 h, 1 mg/kg I.V., AII 0.05 mcg/kg IV, 120 min post dose
  inhibition in vivo at 1 mg/kg: 17%
2 h, 1 mg/kg I.V., AII 0.1 mcg/kg IV, 120 min post dose
  inhibition in vivo at 1 mg/kg: 35%
2 h, 3 mg/kg I.V., AII 0.05 mcg/kg IV, 120 min post dose
  inhibition in vivo at 3 mg/kg: 66%
2 h, 3 mg/kg I.V., AII 0.1 mcg/kg IV, 120 min post dose
  inhibition in vivo at 3 mg/kg: 75%
3 h, 1 mg/kg I.V., AII 0.05 mcg/kg IV, 180 min post dose
  inhibition in vivo at 1 mg/kg: 25%
3 h, 1 mg/kg I.V., AII 0.1 mcg/kg IV, 180 min post dose
  inhibition in vivo at 1 mg/kg: 33%
3 h, 3 mg/kg I.V., AII 0.05 mcg/kg IV, 180 min post dose
  inhibition in vivo at 3 mg/kg: 59%
3 h, 3 mg/kg I.V., AII 0.1 mcg/kg IV, 180 min post dose
  inhibition in vivo at 3 mg/kg: 68%
4 h, 1 mg/kg I.V., AII 0.05 mcg/kg IV, 240 min post dose
  inhibition in vivo at 1 mg/kg: -8%
4 h, 1 mg/kg I.V., AII 0.1 mcg/kg IV, 240 min post dose
  inhibition in vivo at 1 mg/kg: -16%
5 h, 1 mg/kg I.V., AII 0.05 mcg/kg IV, 300 min post dose
  inhibition in vivo at 1 mg/kg: -25%
5 h, 1 mg/kg I.V., AII 0.1 mcg/kg IV, 300 min post dose
  inhibition in vivo at 1 mg/kg: -11%
16.5 h, 1 mg/kg I.V., AII 0.05 mcg/kg IV, 990 min post dose (so in the source)
  inhibition in vivo at 1 mg/kg: 20%
16.5 h, 1 mg/kg I.V., AII 0.1 mcg/kg IV, 990 min post dose (so in the source)
  inhibition in vivo at 1 mg/kg: 9%
[…], 3 mg/kg I.V., AII 0.05 mcg/kg IV, 90 min post dose
  inhibition in vivo at 3 mg/kg: 80%
[…], 3 mg/kg I.V., AII 0.1 mcg/kg IV, 90 min post dose
  inhibition in vivo at 3 mg/kg: 52%
0.5 h, 5 mg/kg P.O., AII 0.05 mcg/kg IV, 30 min post dose
  inhibition in vivo at 5 mg/kg: 47%
0.5 h, 5 mg/kg P.O., AII 0.1 mcg/kg IV, 30 min post dose
  inhibition in vivo at 5 mg/kg: 25%
1 h, 5 mg/kg P.O., AII 0.05 mcg/kg IV, 60 min post dose
  inhibition in vivo at 5 mg/kg: 47%
1 h, 5 mg/kg P.O., AII 0.1 mcg/kg IV, 60 min post dose
  inhibition in vivo at 5 mg/kg: 32%
2 h, 5 mg/kg P.O., AII 0.05 mcg/kg IV, 120 min post dose
  inhibition in vivo at 5 mg/kg: 68%
3 h, 5 mg/kg P.O., AII 0.05 mcg/kg IV, 180 min post dose
  inhibition in vivo at 5 mg/kg: 35%
3 h, 5 mg/kg P.O., AII 0.1 mcg/kg IV, 180 min post dose
  inhibition in vivo at 5 mg/kg: 18%
[…], 5 mg/kg P.O., AII 0.05 mcg/kg IV, 90 min post dose
  inhibition in vivo at 5 mg/kg: 53%
[…], 5 mg/kg P.O., AII 0.1 mcg/kg IV, 90 min post dose
  inhibition in vivo at 5 mg/kg: 52%
1 mg/kg I.V., AII 0.05 mcg/kg IV, 30 min post dose
  Average Change: 25 mmHg
1 mg/kg I.V., AII 0.05 mcg/kg IV, 60 min post dose
  Average Change: 25 mmHg
1 mg/kg I.V., AII 0.05 mcg/kg IV, 120 min post dose
  Average Change: 25 mmHg
1 mg/kg I.V., AII 0.05 mcg/kg IV, 180 min post dose
  Average Change: 22.5 mmHg
1 mg/kg I.V., AII 0.05 mcg/kg IV, 240 min post dose
  Average Change: 32.5 mmHg
1 mg/kg I.V., AII 0.05 mcg/kg IV, 300 min post dose
  Average Change: 37.5 mmHg
1 mg/kg I.V., AII 0.05 mcg/kg IV, 990 min post dose (so in the source)
  Average Change: 24 mmHg
1 mg/kg I.V., AII 0.1 mcg/kg IV, 30 min post dose
  Average Change: 25 mmHg
1 mg/kg I.V., AII 0.1 mcg/kg IV, 60 min post dose
  Average Change: 30 mmHg
1 mg/kg I.V., AII 0.1 mcg/kg IV, 120 min post dose
  Average Change: 26.5 mmHg
1 mg/kg I.V., AII 0.1 mcg/kg IV, 180 min post dose
  Average Change: 27.5 mmHg
1 mg/kg I.V., AII 0.1 mcg/kg IV, 240 min post dose
  Average Change: 47.5 mmHg
1 mg/kg I.V., AII 0.1 mcg/kg IV, 300 min post dose
  Average Change: 45.5 mmHg
1 mg/kg I.V., AII 0.1 mcg/kg IV, 990 min post dose (so in the source)
  Average Change: 37.5 mmHg
3 mg/kg I.V., AII 0.05 mcg/kg IV, 30 min post dose
  Average Change: 20 mmHg
3 mg/kg I.V., AII 0.05 mcg/kg IV, 60 min post dose
  Average Change: 16.5 mmHg
3 mg/kg I.V., AII 0.05 mcg/kg IV, 90 min post dose
  Average Change: 11 mmHg
3 mg/kg I.V., AII 0.05 mcg/kg IV, 120 min post dose
  Average Change: 18.5 mmHg
3 mg/kg I.V., AII 0.05 mcg/kg IV, 180 min post dose
  Average Change: 22.5 mmHg
3 mg/kg I.V., AII 0.1 mcg/kg IV, 30 min post dose
  Average Change: 18.5 mmHg
3 mg/kg I.V., AII 0.1 mcg/kg IV, 60 min post dose
  Average Change: 19 mmHg
3 mg/kg I.V., AII 0.1 mcg/kg IV, 90 min post dose
  Average Change: 26.5 mmHg
3 mg/kg I.V., AII 0.1 mcg/kg IV, 120 min post dose
  Average Change: 14 mmHg
3 mg/kg I.V., AII 0.1 mcg/kg IV, 180 min post dose
  Average Change: 17.5 mmHg
5 mg/kg P.O., AII 0.05 mcg/kg IV, 30 min post dose
  Average Change: 22.5 mmHg
5 mg/kg P.O., AII 0.05 mcg/kg IV, 60 min post dose
  Average Change: 22.5 mmHg
5 mg/kg P.O., AII 0.05 mcg/kg IV, 90 min post dose
  Average Change: 20 mmHg
5 mg/kg P.O., AII 0.05 mcg/kg IV, 120 min post dose
  Average Change: 13.5 mmHg
5 mg/kg P.O., AII 0.05 mcg/kg IV, 180 min post dose
  Average Change: 27.5 mmHg
5 mg/kg P.O., AII 0.1 mcg/kg IV, 30 min post dose
  Average Change: 32 mmHg
5 mg/kg P.O., AII 0.1 mcg/kg IV, 60 min post dose
  Average Change: 29 mmHg
5 mg/kg P.O., AII 0.1 mcg/kg IV, 90 min post dose
  Average Change: 20.5 mmHg
5 mg/kg P.O., AII 0.1 mcg/kg IV, 120 min post dose
  Average Change: 22.5 mmHg
5 mg/kg P.O., AII 0.1 mcg/kg IV, 180 min post dose
  Average Change: 35 mmHg
Single SHR, 5 mg/kg P.O., AII 0.1 mcg/kg IV, 180 min post dose
  Change: 35 mmHg
